Patent publication US20260315434A1, “USE OF GUAIACOL SESQUITERPENE LACTONE DERIVATIVES” (NANJING UNIVERSITY OF CHINESE MEDICINE, priority 2023, published 2026)
In brackets after ≈: the same amount, converted by molar mass.

Experiments:
[1] = Water solubility testing of compounds (HPLC); conditions: deionized water, 37 °C
MDSCs [2] = test: Proportion of MDSCs in tumor and spleen of H22 xenograft mice (flow cytometry); type: in vivo, BALB/c mice
Experimental: Once all tumors were dissected, nail-sized tumor pieces were transferred to 1.5 mL Eppendorf tubes and minced with scissors. Transfer the minced tumor tissue suspension to a 15 mL centrifuge tube containing 3-5 mL of digestive enzymes (Collagenase IV 1 mg/mL, Hyaluronidase 1 mg/mL, DNase 120 U/mL). Incubate at 200 rpm and 37° C. for 1 hour. After digestion, pass the mixture through a 200-mesh sieve to obtain the tumor cell suspension. Centrifuge the resulting tumor suspension at 1600 rpm for 5 min, aspirate the supernatant, resuspend cells in 1 mL of 1×PBS per tube. Transfer the cell suspension to a 1.5 mL Eppendorf tube, centrifuge at 1600 rpm for 5 min, remove the supernatant, resuspend cells in 100 μL of 1×PBS per tube, add 1 μL of dead/live dye to each tube, mix thoroughly, and incubate at room temperature in the dark for 15 min. […] Position the spleen on a 200-mesh cell strainer. Gently press the spleen using a 10 mL syringe needle. […] Transfer the washed splenocyte suspension into a 15 mL centrifuge tube. Centrifuge at 1600 rpm for 5 min to collect cells. Wash once with 1×PBS. Add 3 mL red blood cell lysis buffer (diluted with ddH2O) to each tube and incubate for 5 min. After lysis, add 10 mL 1×PBS to each tube to terminate lysis. Centrifuge at 1600 rpm for 5 min. Add 1 mL 1×PBS to each 15 mL centrifuge tube, transfer to 1.5 mL EP tubes, and centrifuge at 1600 rpm for 5 min. Add 1 mL 1×PBS to each tube containing stained tumor cells and lysed spleen cells for one wash, centrifuge at 1600 rpm for 5 min, and remove the supernatant. Resuspend tumor cells and spleen cells separately in 100 μL 1×PBS. Add 1 μL FcX™ antibody to each tube and incubate at room temperature in the dark for 10 min. After incubation, sequentially add 1 μL each of CD45, CD11b, Gr1 antibodies. Incubate at 4° C. in the dark for 30 min. After incubation, wash once with 1×PBS, discard the supernatant, resuspend cells in 300 μL 1×PBS, filter the membrane into a flow cytometry tube, and proceed to instrument analysis.

Hepa1-6 cells = test: Antitumor effect in Hepa1-6 mouse hepatocellular carcinoma subcutaneous xenograft model; type: in vivo, C57BL/6 mice; conditions: 40 μmol/kg/d oral, 2 weeks
H22 cells = test: Antitumor effect in H22 mouse hepatocellular carcinoma subcutaneous xenograft model; type: in vivo, BALB/c mice; conditions: oral, 2 weeks
4T1 cells = test: Antitumor effect in 4T1 mouse mammary carcinoma xenograft model; type: in vivo, BALB/c mice; conditions: oral, 3 weeks
Experimental: 4T1 cells were cultured and expanded in vitro. […] A 100 μL aliquot of this suspension was injected subcutaneously into the left forelimb axilla of female BALB/c mice. […] Daily oral administration was performed for 3 weeks. During the treatment period, mouse body weight and tumor diameter were measured daily. At the end of the experiment, mice were euthanized by cervical dislocation, and tumors were removed for weighing. Tumor volume (TV) was calculated using the formula: TV=½×a×b^2, where a represents the longest diameter of the tumor and b represents the shortest diameter.

T cells = test: Proportion of T cells in tumor and spleen of H22 xenograft mice (flow cytometry); type: in vivo, BALB/c mice
Experimental: Once all tumors were dissected, nail-sized tumor pieces were transferred to 1.5 mL Eppendorf tubes and minced with scissors. Transfer the minced tumor tissue suspension to a 15 mL centrifuge tube containing 3-5 mL of digestive enzymes (Collagenase IV 1 mg/mL, Hyaluronidase 1 mg/mL, DNase 120 U/mL). Incubate at 37° C. on a shaking incubator at 200 rpm for 1 hour. After digestion, pass the mixture through a 200-mesh sieve to obtain the tumor cell suspension. Centrifuge the resulting tumor suspension at 1600 rpm for 5 min, aspirate the supernatant, resuspend cells in 1 mL of 1×PBS per tube. Transfer the cell suspension to a 1.5 mL Eppendorf tube, centrifuge at 1600 rpm for 5 min, remove the supernatant, resuspend cells in 100 μL of 1×PBS per tube, add 1 μL of dead/live dye to each tube, mix thoroughly, and incubate at room temperature in the dark for 15 min. […] Position the spleen on a 200-mesh cell strainer. Gently press the spleen using a 10 mL syringe needle. […] Transfer the splenocyte suspension into a 15 mL centrifuge tube. Centrifuge at 1600 rpm for 5 min to collect cells. Wash once with 1×PBS. Add 3 mL red blood cell lysis buffer (diluted with ddH2O) to each tube and incubate for 5 min. After lysis, add 10 mL 1×PBS to each tube to terminate lysis. Centrifuge at 1600 rpm for 5 min. Add 1 mL 1×PBS to each 15 mL centrifuge tube, transfer to 1.5 mL EP tubes, and centrifuge at 1600 rpm for 5 min. Add 1×PBS to each tube containing stained tumor cells and lysed spleen cells for one wash, centrifuge at 1600 rpm for 5 min, and remove the supernatant. Resuspend tumor cells and spleen cells separately in 100 μL 1×PBS. Add 1 μL FcX™ antibody to each tube and incubate at room temperature in the dark for 10 min. After incubation, sequentially add 1 μL each of CD45, CD3, and CD8 antibodies to each tube. Incubate at 4° C. in the dark for 30 min. After staining, wash once with 1 mL PBS. Centrifuge at 1600 rpm for 5 min. Discard the supernatant. Resuspend cells in 300 μL 1×PBS. Filter the cell suspension into a flow cytometry tube and proceed to instrument analysis.

T cells / MDSCs = test: Promotion of T cell proliferation in a co-culture model of MDSCs and T cells; type: cell-based, mouse; conditions: for T-cell proliferation rate (%) / T cell proliferation in MDSC-T cell co-culture: 1 μM; for T-cell proliferation rate (%): MDSCs treated 12 hours, co-culture of MDSCs and T cells, compared to the control group; for T cell proliferation in MDSC-T cell co-culture: result in words; for activation at 1 µM: Mus musculus, T-cell, 12 h, read-out: T-cell proliferation rate (%), 1 μM, MDSCs treated 12 hours, co-culture of MDSCs and T cells, compared to the control group
In short: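 Bone-marrow MDSCs, after compound treatment, were co-cultured 48 h at 1:1 with CFDA-SE-labelled (10 μM solution), activated splenic T cells. Proliferation of CD3+ T cells was read by flow cytometry.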

CCR2 mRNA = test: Inhibition of CCR2 mRNA level in MDSCs; type: cell-based; conditions: Mus musculus, 2 h, read-out: Suppression Rate (inhibition of CCR2 mRNA levels)
Experimental: Under sterile conditions, the tibia was removed, both ends of the bone were cut, and bone marrow was repeatedly flushed into a 15 mL centrifuge tube using a 1 mL syringe filled with culture medium. Centrifuge at 1600 rpm for 5 min to collect bone marrow cells. […] Count cells and adjust density to 1×10^6 cells/mL in complete medium. Seed cells uniformly into 6-well plates at 2 mL per well. […] After incubation, collect cells into centrifuge tubes, centrifuge at 1600 rpm for 5 min, wash once with 1×PBS, and add 500 μL RNA extraction reagent to each tube. After centrifugation to obtain the pellet, add 20 μL DEPC-treated water to each tube to dissolve the pellet. Determine RNA concentration and reverse transcribe to cDNA. Add the cDNA, primers, and […] to a 96-well plate. Centrifuge at 4000 rpm for 5 min, then place in a PCR instrument for detection.

MDSCs [3] = test: Inhibition of MDSC chemotaxis (Transwell, tumor-conditioned medium); type: cell-based, mouse; design: inhibition of MDSC chemotaxis compared to Arg: dose or concentration left out as unconfirmed; conditions: for inhibition at 1 µM / inhibition at 10 µM: Mus musculus, read-out: Suppression Rate (MDSC chemotaxis); for inhibition of MDSC chemotaxis compared to Arg: result in words
Experimental: Hepa1-6 mouse hepatocellular carcinoma cells were uniformly seeded into 6-well plates. After cells reached confluence, supernatant was aspirated, and 1-1.5 mL fresh medium was added to each well. Following 24 h culture, supernatant was collected, centrifuged at 1600 rpm for 5 min, aspirated, and filtered through a 0.22 μm membrane to obtain tumor-conditioned medium for subsequent use. […] Under sterile conditions, remove the tibia, cut both ends of the bone, and aspirate the bone marrow into a 1 mL syringe. Repeat flushing into a 15 mL centrifuge tube. Centrifuge at 1600 rpm for 5 min to collect bone marrow cells. Wash twice with 1×PBS. […] Count cells, adjust density to 1×10^6 cells/mL, and uniformly seed into 24-well plates at 300 μL per well. […] Centrifuge at 1600 rpm for 5 min, remove supernatant, resuspend cells in 300 μL fresh medium, and place into Transwell chambers. […] Co-culture for 24 h.

[4] = tested on: fibrosis-related factors (Acta2, Col1a1, Tgfb1) in liver tissue; test: CCl4-induced acute liver injury, liver fibrosis-related factor mRNA; type: in vivo, C57BL/6 mice; design: unit not given here; conditions: 200 mg/kg
Experimental: (§1) They were acclimated for 7 days before use in experiments.
(§2) Mice were randomly assigned to groups. One group was arbitrarily designated as the normal group, while the remaining groups served as model group, Compound 1 group, Hydrochloride 20 group, Fumarate 21 group, and Silibinin group, with 6 mice per group. Except for the normal group receiving 10 mL olive oil/kg via injection, all other mice received 0.5 mL CCl4+9.5 mL olive oil/kg body weight via intraperitoneal injection, maintaining a CCl4 to olive oil ratio of 1:19. Starting from day 1 of modeling, Compound 1, Hydrochloride 20, and Fumarate 21 were administered orally for 3 consecutive days.
(§3) The blood was allowed to stand at room temperature for 2 hours, then centrifuged at 3000 rpm for 20 minutes. Serum was aspirated, aliquoted, and stored at −70° C. for future use. After blood collection, euthanize mice by cervical dislocation. Perform laparotomy to remove the liver. Rinse twice with pre-chilled PBS. Excise the left hepatic lobe tissue. […] Store remaining tissue at −70° C. for future use.
Q-PCR Analysis: Tissue total RNA extraction, cDNA synthesis, and PCR amplification methods are identical to Example 4. Additional primer information is as follows:
(§4) Data Statistics: All data are expressed as means f standard error of the mean (S.E.M.). Differences were analyzed for significance using analysis of variance (ANOVA). For groups showing significant differences in ANOVA, one-way ANOVA followed by Dunnett's test was performed to compare intergroup differences.

serum ALT and AST = test: CCl4-induced acute liver injury, serum ALT and AST; type: in vivo, C57BL/6 mice; conditions: 200 mg/kg
Experimental: as §1, §2, §3
Serum AST and ALT Assay: Use 10 μL of each sample for testing. Determine mouse serum AST and ALT levels according to the operating manual. Measure absorbance at 510 nm using an enzyme-linked immunosorbent assay (ELISA) reader. Calculate sample concentration (U/L) based on the standard curve.
as §4

[5] = 40 μmol/kg/day, oral, 2 weeks, spleen, flow cytometry
[6] = 40 μmol/kg/day, oral, 2 weeks, tumor, flow cytometry
[7] = compared with solvent control, result in words

Compound	Water-solubility [1] [µg/mL]	T-cell proliferation rate (%) (T cells / MDSCs)	inhibition at 1 µM (CCR2 mRNA) [%]	inhibition at 10 µM (CCR2 mRNA) [%]	inhibition at 1 µM (MDSCs [3]) [%]	inhibition at 10 µM (MDSCs [3]) [%]	inhibition of MDSC chemotaxis compared to Arg (MDSCs [3])	T cell proliferation in MDSC-T cell co-culture (T cells / MDSCs)	activation at 1 µM (T cells / MDSCs) [%]	also measured
C=C1C(=O)O[C@H]2[C@H]1CCC(C)=C1CC[C@@](C)(OC(=O)NCCN3CCOCC3)[C@@H]12 [Compound 99]	220800	+ (T-cell proliferation rate within the 0-20% range compared to the control group)	–	–	–	–	–	–	–	Spleen MDSCs (%) (MDSCs [2]; [5]): 30.90 ± 10.21 %; Tumor-associated MDSCs (%) (MDSCs [2]; [6]): 34.85 ± 7.99 %; proportion of MDSCs in tumor tissues and spleens (MDSCs [2]; [7]): significantly reduced; Tumor Inhibition Rate (Hepa1-6 cells): 80.05%; Tumor weight (Hepa1-6 cells; solvent 0.92 ± 1.41): 0.18 ± 0.40 g; Tumor Suppression Rate (%) (H22 cells; 40 μmol/kg/day, H22 xenograft): 25.18%; Tumor weight (H22 cells; 40 μmol/kg/day, H22 xenograft): 6.40 ± 1.59 g; tumor-inhibiting effect, H22 (H22 cells; result in words): tumor-inhibiting effects; Tumor inhibition rate (%) (4T1 cells; 40 μmol/kg/day, 4T1): 20.94%; Tumor weight (4T1 cells; 40 μmol/kg/day, 4T1): 1.43 ± 0.19 g; antitumor effect, 4T1 (4T1 cells; result in words): no significant antitumor effects; Spleen T cells (%) (T cells; [5]): 31.71 ± 2.95 %; Tumor T cells (%) (T cells; [6]): 22.81 ± 5.33 %; proportion of T cells in tumor tissues and spleens (T cells; [7]): significantly increased
C=C1C(=O)O[C@H]2[C@H]1CCC(C)=C1CC[C@@](C)(OC(=O)N3CCCCC3)[C@@H]12 [Compound 83]	152	–	17	70	29.4	75.9	superior inhibition rates	significantly enhanced T-cell proliferation	> 40	–
Silybin [reference compound]	–	–	–	–	–	–	–	–	–	Acta2 mRNA expression, liver [4]: 2.91 ± 0.48; Col1a1 mRNA expression, liver [4]: 1.84 ± 0.17; Tgfb1 mRNA expression, liver [4]: 1.11 ± 0.08; ALT (serum ALT and AST): 121.58 ± 15.45 U/L; AST (serum ALT and AST): 301.45 ± 38.44 U/L
C=C1C(=O)O[C@H]2[C@H]1CCC(C)=C1CC[C@@](C)(OC(=O)NCCN3CCOCC3)[C@@H]12 [Compound 78]	200	+++ (T-cell proliferation rate >40% compared to the control group)	23	52.7	29	67.1	–	significantly enhanced T-cell proliferation	–	–
C=C1C(=O)O[C@H]2[C@H]1CCC(C)=C1CC[C@@](C)(OC(=O)N3CCCC3)[C@@H]12 [Compound 82]	–	–	28.5	74.4	38.5	77.6	superior inhibition rates	significantly enhanced T-cell proliferation	> 40	solubility ([1]; water, Water-solubility): 148 µg/mL (≈ 428 µM)
